Earlier results in patent US20230017920A1, “SHELF-STABLE HYPOCHLOROUS ACID” (priority 2019, published 2023).

Test system: individual bacterial cells
Conditions: various studies, H Park et al., Int J Food Microbiol 91 (2004) 13-18

OCl [HOCl, hypochlorous acid]
time to kill individual bacterial cells: within seconds
